In assay [1] the target is Muscarinic acetylcholine receptor. Description: Inhibitory concentration required for in vitro binding affinity to cholinergic central muscarinic receptor on rat brain cortex by using [3H]OXO-M.
The target of assay [2] is T1, Neuronal acetylcholine receptor; alpha3/beta2 (Homo sapiens, UniProt P17787+P32297). Description: Inhibitory concentration required for in vitro binding affinity to Nicotinic acetylcholine receptor alpha3-beta2 expressed on cell line sf 9 by using [3H]-MCC. More on the design: species or system Rattus norvegicus.
T1 sequence (P17787 whole entry): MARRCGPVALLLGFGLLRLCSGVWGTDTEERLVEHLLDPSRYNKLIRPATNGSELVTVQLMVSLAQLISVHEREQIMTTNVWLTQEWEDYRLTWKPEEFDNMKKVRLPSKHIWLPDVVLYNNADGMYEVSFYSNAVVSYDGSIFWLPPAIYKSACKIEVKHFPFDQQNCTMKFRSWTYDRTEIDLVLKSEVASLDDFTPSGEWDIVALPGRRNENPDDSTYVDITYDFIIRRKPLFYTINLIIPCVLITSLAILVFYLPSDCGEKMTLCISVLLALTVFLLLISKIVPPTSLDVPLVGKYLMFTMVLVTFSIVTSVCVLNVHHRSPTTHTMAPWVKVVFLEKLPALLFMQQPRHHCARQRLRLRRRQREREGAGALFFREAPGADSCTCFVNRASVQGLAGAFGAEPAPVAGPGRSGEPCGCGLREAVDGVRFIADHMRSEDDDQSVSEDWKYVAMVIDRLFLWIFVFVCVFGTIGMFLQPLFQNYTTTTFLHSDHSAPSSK
T1 sequence (P32297 whole entry): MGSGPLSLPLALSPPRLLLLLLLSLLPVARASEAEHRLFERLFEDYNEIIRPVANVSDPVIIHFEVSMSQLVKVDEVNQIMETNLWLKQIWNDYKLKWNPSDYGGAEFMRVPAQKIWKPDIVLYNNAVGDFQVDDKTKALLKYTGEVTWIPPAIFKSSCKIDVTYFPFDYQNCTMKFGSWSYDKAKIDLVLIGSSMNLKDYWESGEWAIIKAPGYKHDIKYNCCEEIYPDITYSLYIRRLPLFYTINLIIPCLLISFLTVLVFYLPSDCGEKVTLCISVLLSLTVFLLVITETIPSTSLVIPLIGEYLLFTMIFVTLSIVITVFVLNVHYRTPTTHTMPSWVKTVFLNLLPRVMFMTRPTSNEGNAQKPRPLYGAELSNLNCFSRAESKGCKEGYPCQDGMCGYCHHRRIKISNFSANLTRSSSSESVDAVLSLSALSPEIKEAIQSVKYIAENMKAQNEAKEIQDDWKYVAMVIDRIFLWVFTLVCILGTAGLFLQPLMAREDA
In assay [3] the target is Neuronal acetylcholine receptor. Description: Inhibitory concentration required for in vitro binding affinity to cholinergic central Nicotinic acetylcholine receptor on rat brain cortex by using [3H]MCC.
Assay [4] in a line: Inhibitory concentration required for in vitro binding affinity to Nicotinic acetylcholine receptor alpha4-beta2 expressed on cell line sf 21 by using [3H]-MCC.
For assay [5], the species on record is Rattus norvegicus. As to the kind of experiment: The compound was tested for inducing [3H]dopamine release from striatal slices at 1 uM nicotine. The class given is functional.
Assay [6] concerns Rattus norvegicus. Description: Compound was tested in vivo against effective nicotinic agonistic activity in rat when administered s.c. The class given is functional. The conditions noted are these: sc.
The species named for assay [7] is Xenopus sp. Description: Compound was tested for inducing stimulation of current response in Xenopus oocytes (alpha3-beta2) at 30 uM. Type of assay: functional, frog.
The species entered for assay [8] is Rattus norvegicus. Description: The compound was tested for inducing [3H]dopamine release from striatal slices at 10 uM nicotine. The class given is functional.
Assay [9] deals with Rattus norvegicus. As to the kind of experiment: Compound was tested in vivo against effective nicotinic agonistic activity in rat. Type of assay: functional.
Assay [10] can be described thus: Inhibitory concentration required for in vitro binding affinity to Nicotinic acetylcholine receptor alpha4-beta2 expressed on cell line Sf 21 by using [3H]MCC.
The test system of assay [11] is Mus musculus. As to the kind of experiment: Compound was tested in vivo for exploratory locomotor activity in mice after peroral administration. The conditions noted are these: po. The class given is functional.
For assay [12], the species on record is Xenopus sp. As to the kind of experiment: Compound was tested for inducing stimulation of current response in Xenopus oocytes (alpha4-beta2) at 1 uM. The class given is functional, frog.
Assay [13] is filed under the species Rattus norvegicus. Description: Compound was tested for inducing [3H]-dopamine release from striatal slices at 10 uM nicotine. The class given is functional.
The species named for assay [14] is Rattus norvegicus. Description: Compound was tested for inducing [3H]dopamine release from striatal slices at 1 uM nicotine. Type of assay: functional.
Assay [15] concerns the target T1, Neuronal acetylcholine receptor; alpha3/beta2. As to the kind of experiment: Inhibitory concentration required for in vitro binding affinity to Nicotinic acetylcholine receptor alpha3-beta2 expressed on cell line Sf 9 by using [3H]MCC. Set-up: species or system Rattus norvegicus.
The subject of assay [16] is Mus musculus. Description: Compound was tested in vivo for exploratory locomotor activity in mice after subcutaneous administration. Type of assay: functional. Conditions: sc.
A short description of assay [17]: Inhibitory concentration required for in vitro binding affinity to Nicotinic acetylcholine receptor alpha4-beta2 expressed on cell line sf 21 by using [3H]MCC.
Assay [18] has as its system Rattus norvegicus. Description: The compound was tested in vivo against effective nicotinic agonistic activity in rat when administered s.c. The class given is functional. Conditions: sc.
In assay [19] the test system is Rattus norvegicus. As to the kind of experiment: The compound was tested in vivo against effective nicotinic agonistic activity in rat. The class given is functional.

The IC50 is the concentration at which inhibition is half-maximal. Read a low IC50 as greater potency in that assay. Broadly, the ED50 is the dose that gives a 50% effect, or the effect in half of the subjects. Read a low ED50 as an effect at a small dose.

For the molecule `Cc1cc(C=C2CN3CCCC2C3)on1` (stereo not drawn), the IC50 in assay [1] worked out at 1700 nM; in assay [2], 117 nM; in [3], 85 nM; in assay [4] it was 41 nM.

In the case of `Cc1cc(/C=C2/CN3CCC2C3)on1` (stereo not drawn), the IC50 in assay [1] came to 2800 nM; in [2], 14 nM; in assay [3] it was 26 nM; in [4], 6.5 nM. Moreover, the values for the Activity in the assay filed under Rattus norvegicus [5], in the assay listed under Rattus norvegicus [8] and in the assay on Rattus norvegicus [9] were 17%, 46% and 62%, respectively. In addition, the median effective dose (ED50) with Rattus norvegicus [6] amounted to 0.2 mg/kg. In the assay listed under Xenopus sp. [7], this molecule displayed a Response of 38%.

Turning to `Cc1cc(/C=C2\CN3CCC2C3)on1` (stereo not drawn), the IC50 in assay [1] is 1200 nM; in assay [10] it was 11 nM; in assay [3] it was 23 nM; in assay [15] it was 15 nM. In addition, the median effective dose (ED50) was determined as 0.5 mg/kg in the assay on Rattus norvegicus [6], 2 mg/kg with Mus musculus [11] and 4.1 mg/kg with Mus musculus [16]. The Response in the assay listed under Xenopus sp. [7] came to 51%; in the assay filed under Xenopus sp. [12], 171%. Also, the Activity in the assay listed under Rattus norvegicus [13] was 80%; in the assay filed under Rattus norvegicus [14], 38%; in the assay with Rattus norvegicus [9] it was 63%.

For the molecule `Cc1cc(/C=C2/CN3CCC2CC3)on1`, the IC50 in assay [1] stood at 1500 nM; in assay [2], 854 nM; in [17], 288 nM.

`Cc1cc(/C=C2\CN3CCC2CC3)on1`: the ED50 was 0.1 mg/kg with Rattus norvegicus [18], 2.4 mg/kg in the assay with Mus musculus [11] and 0.4 mg/kg with Mus musculus [16]. The IC50 in assay [1] was found to be 1000 nM; in assay [2], 1.9 nM; in assay [3], 3.4 nM; in assay [4] it was 1.4 nM. In addition, the Activity is listed as 51% in the assay filed under Rattus norvegicus [5], 68% in the assay filed under Rattus norvegicus [8] and 60% in the assay with Rattus norvegicus [19]. The Response was found to be 135% in the assay filed under Xenopus sp. [7] and 300% in the assay filed under Xenopus sp. [12].

Regarding `Cc1cc(/C=C2\CN3CCCC2C3)on1` (stereo not drawn), the IC50 in assay [1] came to 950 nM; in [2], 217 nM; in assay [3], 170 nM; in [4] it was 26 nM.

Consider `Cc1cc([C@@H]2CCCN2C)on1` [ABT-418], for which the Activity in the assay filed under Rattus norvegicus [5] came to 5%; in the assay listed under Rattus norvegicus [8], 66%; in the assay with Rattus norvegicus [9], 72%. Moreover, the ED50 in the assay on Rattus norvegicus [6] worked out at 0.2 mg/kg; in the assay with Mus musculus [11], 72 mg/kg; in the assay with Mus musculus [16], 10 mg/kg. Moreover, the Response turned out to be 40% in the assay listed under Xenopus sp. [7] and 24% in the assay filed under Xenopus sp. [12]. The IC50 in assay [2] is 62 nM; in assay [4] it was 37 nM.

With `CN1CCC[C@H]1c1cccnc1` [NICOTINE], the results for the ED50 with Rattus norvegicus [18], in the assay on Mus musculus [11] and with Mus musculus [16] were 0.04 mg/kg, above 9 mg/kg and 0.3 mg/kg, respectively. Further, the Activity in the assay listed under Rattus norvegicus [5] is reported as 100%; in the assay listed under Rattus norvegicus [8] it was 180%; in the assay with Rattus norvegicus [19], 96%. For the same molecule, the Response in the assay listed under Xenopus sp. [7] and in the assay listed under Xenopus sp. [12] was 100% throughout. In addition, the IC50 in assay [4] was 4.2 nM.

Values taken from ChEMBL document CHEMBL1159188, “Identification of novel (isoxazole)methylene-1-azabicyclic compounds with high affinity for the central nicotinic cholinergic receptor” (Bioorg Med Chem Lett, 1997).
